US20060100264A1, “3,3'-Diindolylmethane immune activating compositions” (priority 2004, published 2006)

Legend:
IFNγ receptor (IFNGR1) = experiment: IFNGR1 mRNA expression in DIM-treated MCF-7 cells (cDNA microarray, Northern blot, quantitative RT-PCR); assay type: cell-based, human
Protocol: (§1) Immune response activating effects of the DIM analogs are examined with cell-based assays for cytokine and cytokine receptor expression. […] We also used a sensitive sandwich ELISA assay to examine levels of IFNγ in medium from confluent cultures of MCF-7 cells that were treated for up to 3 days. DIM derivatives confirmed to have immune response activating activity in our reporter and ELISA assays are subsequently screened in a whole animal cytokine production and Y. enterocolitica infection studies, as described below in Examples VIII and IX.
(§2) An initial cDNA gene expression microarray screen of human breast cancer MCF-7 cells treated with DIM, followed by confirmation of results using Northern blots and quantitative RT-PCR, established the transcriptional activation of IFNγ, IFNγ receptor (IFNGR1), oligoadenylate-synthase (OAS) family member protein 69 (p69-OAS), and interferon-inducible protein 56 (p56), a protein closely related to OAS. […] Maximum induction for IFNγ, IFNGR1, p69-OAS and p56 were 4.6, 3.8, 3.2 and 4.0 fold, respectively.

[1] = test system: oligoadenylate-synthase (OAS) family member protein 69 (p69-OAS); experiment: p69-OAS mRNA expression in MCF-7 cells (microarray, Northern blot, RT-PCR); assay type: cell-based, human
Protocol: as §1, §2

MHC-II = MHC-II expression in MCF-7 cells; assay type: cell-based, human
Source text: In an analogous further experiment, we observed no effect of DIM or IFNγ on MHC-II expression in the MCF-7 cells.

IL-6 = experiment: Serum IL-6 by ELISA in mice after DIM; assay type: in vivo; conditions: 30 μg/kg DIM orally
Protocol: (§3) We firstly investigated the effect of unsubstituted DIM on the production of IL-6, G-CSF, IL-12, TNF-α and IFNγ. A groups of 3 mice was given 30 μg/kg of unsubstituted DIM orally and then sacrificed at 1, 3, 5, 8, and 24 h after drug challenge. Serum was collected, pooled, and assayed for IL-6, G-CSF, IL-12 and TNF-α by ELISA. […] DIM produced an increase in circulating levels of G-CSF and TNF-α with the 3 h time point being maximal. […] DIM also stimulated IL-12 and kinetics were slightly different since the increased levels were sustained for at least 24 h.

[2] = test system: Y. enterocolitica WA-314 serotype O:8; experiment: Y. enterocolitica infection of BALB/c mice, spleen bacterial numbers; assay type: in vivo
Protocol: Female, 6- to 8-week-old BALB/c mice are purchased from Charles River and kept under specific-pathogen-free conditions (positive-pressure cabinet).
Mice are given 30 μg/kg/day of a DIM or one of 24 substituted DIM compounds (Table 1, supra) orally, starting at 1 day prior to infection.
Freshly thawed, plasmid-harboring Y. enterocolitica WA-314 serotype O:8 organisms suspended in 0.1 ml of sterile phosphate-buffered saline (PBS), pH 7.4, are used for intravenous and oral infection as described previously (Autenrieth, et al. 1994. Infect. Immun. 62:2590-2599). The actual number of bacteria administered is determined by plating serial dilutions of the inoculum on Mueller-Hinton agar and counting CFU after an incubation period of 36 h at 26C. For kinetic studies, five mice per group are killed by carbon dioxide asphyxiation on days 1, 3, and 7 postinfection (p.i.) with 5×10^3 bacteria. Spleens are aseptically removed, and single-cell suspensions prepared by using 5 ml of PBS containing 0.1% bovine serum albumin. Duplicates of 0.1 ml of serial dilutions of these preparations are plated on Mueller-Hinton agar. The limit of detectable CFU is 25 (log1025=1.4).
In single end-point studies, bacterial numbers in spleens of treated BALB/c mice 7 days p.i. with 2×10^3 Y. enterocolitica show significant reductions compared with untreated controls.

[3] = Estimated blood concentration of DIM from dietary broccoli; design: species or system human; conditions: approximately 12 mg DIM from 200 g broccoli daily, maximum absorption assumed
Protocol: We observed the immune response activating activity of DIM at physiologically relevant concentrations. A person of average weight who consumes 200 g of broccoli daily will obtain approximately 12 mg of DIM. With maximum absorption of DIM, the blood concentration of DIM will reach approximately 10 μM. Therefore, in vivo concentrations of DIM from dietary Brassica vegetables represent the effective levels of DIM in vitro.

[4] = test system: interferon-inducible protein 56 (p56); experiment: p56 mRNA expression in DIM-treated MCF-7 cells (cDNA microarray, Northern blot, quantitative RT-PCR); assay type: cell-based, human
Protocol: as §1, §2

TNF-α = experiment: Serum TNF-α by ELISA in mice after DIM; assay type: in vivo; conditions: 30 μg/kg DIM orally
Protocol: as §3

MCF-7 cells = experiment: Flow cytometry of cell cycling (G1 phase); assay type: cell-based, human; conditions: up to 3 days; control approximately 50% in G1
Source text: Flow cytometry was used to determine the effects of DIM and IFNγ on cell cycling. […] In control groups approximately 50% of the cells were in G1. Treatment with IFNγ alone caused a small progressive increase in G1 blocked cells of up to 10% above the DMSO control, after 3 days.

[5] = test system: OAS-Luc reporter (promoter and 5′-flanking region of p69-OAS); experiment: OAS-Luc luciferase reporter in transiently transfected MCF-7 cells; assay type: cell-based, human; conditions: 24 h treatment
Protocol: In a further experiment to examine whether the inducing effects of DIM are at the transcriptional level, the effect of DIM on activities of two luciferase reporter constructs, OAS-Luc (12) and 4GAS-Luc (13) was examined. OAS-Luc contains the promoter and 5′-flanking region (−972) of p69-OAS and GAS-Luc contains four repeats of the consensus GAS element. MCF-7 cells transiently transfected with these reporter constructs were treated with IFNγ, DIM, or a combination of both for 24 h. […] IFNγ induced transcriptional activity of this reporter in a concentration dependent manner to a maximum of about 1.8 fold, which is less than the response of the endogenous gene of about 5.0 fold. In marked contrast to the maximum effects of combined treatments of the inducers on endogenous gene expression (nearly 12-fold increase compared to vehicle treated cells), the reporter gene construct responded with less than a 3-fold increase over the controls.

G-CSF = experiment: Serum G-CSF by ELISA in mice after DIM; assay type: in vivo; conditions: 30 μg/kg DIM orally
Protocol: as §3

[6] = test system: DMBA-induced mammary tumorigenesis; conditions: repeated oral administrations during promotion stage, rodents; cited from earlier work

c1ccc2c(Cc3c[nH]c4ccccc34)c[nH]c2c1 [DIM, 3,3′-Diindolylmethane]
Maximum induction of IFNGR1 mRNA (IFNγ receptor (IFNGR1); MCF-7 cells treated with DIM): 3.8 fold
Treatment time at which maximum IFNGR-1 induction was reached (IFNγ receptor (IFNGR1); MCF-7 cells treated with DIM): 48 h
IFNGR1 mRNA level at 48 h of treatment (IFNγ receptor (IFNGR1); MCF-7 cells, 48 h): remained elevated
Maximum induction of p69-OAS mRNA ([1]; MCF-7 cells treated with DIM): 3.2 fold
Treatment time at which p69-OAS expression was fully induced ([1]; MCF-7 cells treated with DIM): 6 h
p69-OAS mRNA level at 48 h of treatment ([1]; MCF-7 cells, 48 h): remained elevated
Effect on MHC-II expression (MHC-II): no effect
Time of peak IL-6 induction (IL-6): 5 h
Severity of yersiniae infection [2]: reduce the severity of yersiniae infection
Blood concentration of DIM [3]: approximately 10 μM
Maximum induction of p56 mRNA ([4]; MCF-7 cells treated with DIM): 4.0 fold
Treatment time at which p56 expression was fully induced ([4]; MCF-7 cells treated with DIM): 6 h
p56 mRNA level following 48 h of DIM treatment ([4]; MCF-7 cells, 48 h): returned to near control levels
Time point of maximal circulating TNF-α (TNF-α): 3 h
Increase in G1 blocked cells above the DMSO control (MCF-7 cells): up to 30%
Maximum induction of OAS-Luc reporter [5]: about 2.3 fold
Time point of maximal circulating G-CSF (G-CSF): 3 h
Inhibition of tumor growth [6]: ≤ 95%
